This is an account of results in patent US20260176266A1, “PIPERIDINOPYRIMIDINE DERIVATIVE, PREPARATION METHOD THEREFOR AND USE THEREOF IN MEDICINE” (TUOJIE BIOTECH (SHANGHAI) CO., LTD., priority 2022, published 2026).

One data set deals with CDK4/CyclinD1 (Homo sapiens, UniProt P11802). In words: ADP-Glo kinase assay, CDK4. Type of data set: biochemical. To be noted: 16.3 nM CDK4/CyclinD1, 200 μM ATP (Km), DYRKtide peptide, 120 min; read-out: inhibitory activity (IC50, nM) CDK4. The procedure:
The ADP-Glo kinase assay was used for testing the activity of CDKs. The compounds were diluted in 384-well plates using Echo. The starting concentration was 10 μM and was 3-fold diluted to obtain 10 concentration points, each tested in duplicate, and the final concentration of DMSO in the assay system was 1%. CDK solutions (the final concentrations were 16.5 nM CDK1/CyclinB, 1 nM CDK2/CyclinE1, 16.3 nM CDK4/CyclinD1, 11.5 nM CDK5/p25, 15.7 nM CDK6/CyclinD3, 80 nM CDK7/Cyclin H/MAT1, 15.3 nM CDK9/Cyclin T1, and 150 nM CDK12/CyclinK) prepared in assay buffer were added at 2.5 μL, and the enzymes and compounds were pre-incubated at room temperature for 10 min. ATP (the concentration was Km) & substrate solutions (20 μM ATP & 0.1 mg/mL Histone H1 Protein for CDK1/CyclinB, 15 μM ATP & 0.1 mg/mL Histone H1 Protein for CDK2/CyclinE1, 200 μM ATP & 0.2 mg/mL DYRKtide peptide for CDK4/CyclinD1, 10 μM ATP & 0.1 mg/mL Histone H1 Protein for CDK5/p25, 200 μM ATP & 0.1 mg/mL Histone H1 Protein for CDK6/CyclinD3, 70 μM ATP & 0.2 mg/mL MBP for CDK7/Cyclin H/MAT1, 60 μM ATP & 0.2 mg/mL PDKtide for CDK9/Cyclin T1, and 20 μM ATP & 80 μM pS7-CTD peptide for CDK12/CyclinK) prepared in assay buffer were added at 2.5 μL. […] Readings were taken using an Envision multimode microplate reader. Data were processed using GraphPad Prism 8, and IC50 was calculated. […]

Data set [1] deals with PANC-1 pancreatic cancer cells. In words: Inhibitory activity against tumor cells, CellTiter-Glo: PANC-1. It counts as cell-based. The note with it: Homo sapiens, 120 h, PANC-1, 5 days treatment. The method, then:
MCF7 (ATCC #HTB-22) and T47D (ATCC #HTB-133) breast cancer cells and PANC-1 (ATCC #CRL-1469) pancreatic cancer cells were purchased from ATCC. MDA-MB-231 (Cobioer #CBP60382), HCC1806 (Cobioer #CBP60373), and MDA-MB-468 (Cobioer #CBP60387) breast cancer cells, HCT-116 (Cobioer #CBP60028) colorectal cancer cells, and OCI-AML-3 (Cobioer #CBP60817) and MV-4-11 (Cobioer #CBP60522) leukemia cells were purchased from Nanjing Cobioer Biosciences Co., Ltd.
OCI-AML-3 was cultured in RPMI 1640 medium with 20% FBS; HCC1806 and T47D were cultured in RPMI 1640 medium with 10% FBS; MCF7, MDA-MB-231, MDA-MB-468, and PANC-1 were cultured in DMEM medium with 10% FBS; MV-4-11 was cultured in IMDM medium with 20% FBS; HCT-116 was cultured in MC′5A medium with 10% FBS.
Palbociclib-resistant cells were constructed on MCF7 parent cells, designated MCF7 Palbo-R, and the culture conditions were consistent with those of the parent cells. All tumor cells were cultured in a cell incubator at 37° C. with 5% CO2. The cells were seeded at corresponding cell densities (600 cells/well for MDA-MB-231; 500 cells/well for MDA-MB-468, PANC-1, and HCT-116; 200 cells/well for MCF7 and HCC1806; 800 cells/well for MCF7 Palbo-R; 3000 cells/well for OCI-AML-3 and MV-4-11) in 384-well plates and cultured overnight in the incubator. On the second day, the cells were treated with compounds. The maximum compound concentration was 10 μM and was 3-fold diluted to obtain 9 concentrations, each tested in duplicate, and the final concentration of DMSO was 0.1%. The cells continued to be cultured in the incubator, with MDA-MB-231, PANC-1, MDA-MB-468, OCI-AML-3, and MV-4-11 being treated with drugs for 5 days and HCC1806, MCF7, MCF7 Palbo-R, and HCT116 being treated with drugs for 7 days. Cell viability was tested using the Celltiter Glo assay kit (Promega), and the testing method was consistent with the operational method provided by the kit. Readings were taken using an Envision multimode microplate reader. Data were processed using GraphPad Prism 8, and IC50 was calculated. […]

The next data set addresses CDK7/Cyclin H/MAT1 (Homo sapiens, UniProt P50613). In words: ADP-Glo kinase assay, CDK7. The note with it: for IC50: 80 nM CDK7/Cyclin H/MAT1, 70 μM ATP (Km), MBP, 60 min, read-out: inhibitory activity (IC50, nM) CDK7; for selectivity for CDK2/CDK7 compared with Janssen-01: from IC50 of Table 6, statement in words. Type of data set: biochemical. The method, then: The ADP-Glo kinase assay was used for testing the activity of CDKs. The compounds were diluted in 384-well plates using Echo. The starting concentration was 10 μM and was 3-fold diluted to obtain 10 concentration points, each tested in duplicate, and the final concentration of DMSO in the assay system was 1%. CDK solutions (the final concentrations were 16.5 nM CDK1/CyclinB, 1 nM CDK2/CyclinE1, 16.3 nM CDK4/CyclinD1, 11.5 nM CDK5/p25, 15.7 nM CDK6/CyclinD3, 80 nM CDK7/Cyclin H/MAT1, 15.3 nM CDK9/Cyclin T1, and 150 nM CDK12/CyclinK) prepared in assay buffer were added at 2.5 μL, and the enzymes and compounds were pre-incubated at room temperature for 10 min. ATP (the concentration was Km) & substrate solutions (20 μM ATP & 0.1 mg/mL Histone H1 Protein for CDK1/CyclinB, 15 μM ATP & 0.1 mg/mL Histone H1 Protein for CDK2/CyclinE1, 200 μM ATP & 0.2 mg/mL DYRKtide peptide for CDK4/CyclinD1, 10 μM ATP & 0.1 mg/mL Histone H1 Protein for CDK5/p25, 200 μM ATP & 0.1 mg/mL Histone H1 Protein for CDK6/CyclinD3, 70 μM ATP & 0.2 mg/mL MBP for CDK7/Cyclin H/MAT1, 60 μM ATP & 0.2 mg/mL PDKtide for CDK9/Cyclin T1, and 20 μM ATP & 80 μM pS7-CTD peptide for CDK12/CyclinK) prepared in assay buffer were added at 2.5 μL. After thorough mixing, the plates were incubated at room temperature, with CDK1/4/9/12/13 incubated for 120 min and CDK2/5/6/7 incubated for 60 min. ADP-Glo reagents were added at 4 μL, and the plates were incubated at room temperature for 40 min. Kinase detection reagents were added at 8 μL, and the plates were incubated at room temperature for 40 min. Readings were taken using an Envision multimode microplate reader. Data were processed using GraphPad Prism 8, and IC50 was calculated.
[formula] • X: the logarithm of the compound concentration; Y: % inhibition.

Data set [2] is described as follows: Human liver microsome metabolism study. Type of data set: in vitro ADME. The method, then:
222.5 μL of human liver microsomes (protein concentration: 1 mg/mL) and 25 μL of NADPH ([…]) were added to an incubation plate and pre-heated for 10 min. 2.5 μL of control compound and test compound (100 μM) were added.
[…] The reaction was stopped by adding 5 volumes of cold acetonitrile containing IS (100 nM alprazolam, 200 nM caffeine, and 100 nM tolbutamide). The reaction mixture was centrifuged, and 100 μL of the supernatant was collected and mixed with 100 μL of ultrapure H2O. Then the mixture was analyzed by LC-MS/MS.
The slope value k was determined by linear regression of the natural logarithm of a curve of the parent drug remaining percentage versus incubation time.
The in-vitro half-life (in-vitro T1/2) was determined by the slope value:
Using the following equation (the average of repeated measurements), the in-vitro T½ (min) was converted to the in-vitro intrinsic clearance rate (in-vitro CLint, in μL/min/mg protein): […]
(In general: Liver microsomes are vesicles of endoplasmic reticulum, rich in cytochrome P450 enzymes.)

CDK7/Cyclin H/MAT1, sequence (P50613 whole entry, species assumed): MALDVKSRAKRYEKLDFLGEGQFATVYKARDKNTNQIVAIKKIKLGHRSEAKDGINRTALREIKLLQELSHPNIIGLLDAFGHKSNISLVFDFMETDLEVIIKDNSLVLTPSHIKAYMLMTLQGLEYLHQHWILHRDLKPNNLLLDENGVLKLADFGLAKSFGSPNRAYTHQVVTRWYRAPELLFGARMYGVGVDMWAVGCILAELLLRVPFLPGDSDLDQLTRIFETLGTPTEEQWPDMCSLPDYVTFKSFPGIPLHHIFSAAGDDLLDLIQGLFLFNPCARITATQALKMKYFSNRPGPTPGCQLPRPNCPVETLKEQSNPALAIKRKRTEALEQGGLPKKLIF
CDK7/Cyclin H/MAT1, sequence (P51946 whole entry partner, species assumed): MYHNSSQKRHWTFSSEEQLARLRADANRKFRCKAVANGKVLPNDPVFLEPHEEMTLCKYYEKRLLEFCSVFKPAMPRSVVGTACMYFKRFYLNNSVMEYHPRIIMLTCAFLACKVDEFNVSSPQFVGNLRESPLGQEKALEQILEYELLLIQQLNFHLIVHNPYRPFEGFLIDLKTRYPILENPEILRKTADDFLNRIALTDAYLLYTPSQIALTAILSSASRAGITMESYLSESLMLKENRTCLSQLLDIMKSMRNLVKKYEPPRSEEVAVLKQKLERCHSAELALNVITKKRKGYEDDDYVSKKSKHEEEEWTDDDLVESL
CDK7/Cyclin H/MAT1, sequence (P51948 whole entry partner, species assumed): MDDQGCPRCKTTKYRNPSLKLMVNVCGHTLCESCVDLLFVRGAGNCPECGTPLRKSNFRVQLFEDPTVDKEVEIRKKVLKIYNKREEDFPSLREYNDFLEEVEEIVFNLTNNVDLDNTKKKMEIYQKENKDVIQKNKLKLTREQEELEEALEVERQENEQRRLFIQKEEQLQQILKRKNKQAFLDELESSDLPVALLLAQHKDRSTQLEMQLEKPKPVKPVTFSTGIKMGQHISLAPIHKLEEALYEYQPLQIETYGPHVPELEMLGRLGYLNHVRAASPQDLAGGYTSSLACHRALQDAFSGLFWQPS
CDK4/CyclinD1, sequence (P11802 whole entry, species assumed): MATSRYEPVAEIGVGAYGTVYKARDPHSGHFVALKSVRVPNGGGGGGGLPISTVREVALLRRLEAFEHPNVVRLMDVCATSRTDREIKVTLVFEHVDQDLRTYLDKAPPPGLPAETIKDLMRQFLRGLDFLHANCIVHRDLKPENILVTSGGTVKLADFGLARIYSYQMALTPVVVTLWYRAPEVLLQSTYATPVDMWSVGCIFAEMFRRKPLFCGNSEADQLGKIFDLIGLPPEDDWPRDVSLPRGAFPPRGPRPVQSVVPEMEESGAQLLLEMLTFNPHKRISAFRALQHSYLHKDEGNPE
CDK4/CyclinD1, sequence (P24385 whole entry partner, species assumed): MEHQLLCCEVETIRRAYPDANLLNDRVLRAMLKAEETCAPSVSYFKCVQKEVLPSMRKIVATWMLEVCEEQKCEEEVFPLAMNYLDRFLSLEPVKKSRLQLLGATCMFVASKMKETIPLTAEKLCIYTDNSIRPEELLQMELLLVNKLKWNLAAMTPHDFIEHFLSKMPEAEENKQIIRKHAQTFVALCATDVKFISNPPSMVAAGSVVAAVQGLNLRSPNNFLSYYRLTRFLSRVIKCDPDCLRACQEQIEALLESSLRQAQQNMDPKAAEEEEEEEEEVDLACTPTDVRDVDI

Consider `C[C@H](Nc1ncc2c(n1)CN(C(=O)N[C@H](CN(C)C)c1ccccc1)[C@H](C)C2)c1ccccn1` [Example 6, (R)—N—((S)-2-(Dimethylamino)-1-phenylethyl)-6-methyl-2-(((S)-1-(pyridin-2-yl)ethyl)amino)-5,8-dihydropyrido[3,4-d]pyrimidine-7(6H)-carboxamide], for which the IC50 (in general, the point on the concentration scale where inhibition reaches its midpoint) at CDK4/CyclinD1 was greater than 10000 nM; in data set [1], 0.0177 µM; on CDK7/Cyclin H/MAT1 it was 28.4 nM. At CDK7/Cyclin H/MAT1, the “selectivity for CDK2/CDK7 compared with Janssen-01” value is “significantly better selectivity for CDK2/CDK7 than Janssen-01”.
For the compound `C[C@@H]1Cc2cnc(NCc3ccn(C)n3)nc2CN1C(=O)N[C@H](CN(C)C)c1ccccc1` [Example 2, (R)—N—((S)-2-(Dimethylamino)-1-phenylethyl)-6-methyl-2-(((1-methyl-TH-pyrazol-3-yl)methyl)amino)-5,8-dihydropyrido[3,4-d]pyrimidine-7(6H)-carboxamide], the IC50 is greater than 10000 nM at CDK4/CyclinD1, 0.0459 µM in data set [1] and 21.9 nM on CDK7/Cyclin H/MAT1. For the same compound, the “selectivity for CDK2/CDK7 compared with Janssen-01” value on CDK7/Cyclin H/MAT1 is reported as “significantly better selectivity for CDK2/CDK7 than Janssen-01”. For the same compound, the half-life – broadly, the time in which the quantity being followed falls by half – at 1 μM in data set [2] (human liver microsomes, in-vitro half-life) is greater than 3.08 h. Besides, in data set [2] (human liver microsomes, in-vitro intrinsic clearance), the microsomal CLint (in general, the rate of metabolic loss divided by the concentration) at 1 μM is less than 7.5 µL/min/mg. For the same compound, in data set [2] (human liver microsomes, incubation 0.5 min), the “Remaining amount % at 0.5 min” value is given as 100.00%. Further, in data set [2] (human liver microsomes, incubation 5 min), the “Remaining amount % at 5 min” value came out at 105.55%. Besides, in data set [2] (human liver microsomes, incubation 15 min), the “Remaining amount % at 15 min” value was 96.07%. Besides, in data set [2] (human liver microsomes, incubation 30 min), the “Remaining amount % at 30 min” value turned out to be 100.48%. Moreover, the “Remaining amount % at 60 min” value in data set [2] (human liver microsomes, incubation 60 min) was 81.83%. For the same compound, in data set [2] (summary of Tables 7 and 8, statement in words), the “metabolic stability in human liver microsomes compared with Janssen-01” value is on record as “more stable metabolism”.
